According to PubChem BioAssay (NCI):
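All cell lines were grown in 96-well plates and treated with compound for 48 hours. GI50 is the concentration that inhibits growth by half. TGI marks complete inhibition of growth.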

Experiments:
Test in all cases: NCI tumour cell line growth inhibition, 48 h
[1] = test system: MDA-MB-435
[2] = test system: U251 CNS
[3] = test system: RPMI-8226 leukemia
[4] = test system: MOLT-4 leukemia
[5] = test system: MCF7 breast
[6] = test system: EKVX NSCLC
[7] = test system: NCI-H226 lung
[8] = test system: CCRF-CEM leukemia
[9] = test system: HOP-62 NSCLC
[10] = test system: NCI-H522 lung
[11] = test system: HCT-15 colon
[12] = test system: PC-3 prostate
[13] = test system: SK-OV-3 ovarian
[14] = test system: NCI-H460 lung
[15] = test system: COLO 205 colon
[16] = test system: A498 renal
[17] = test system: CAKI-1 renal
[18] = test system: MALME-3M melanoma
[19] = test system: MDA-MB-231 breast
[20] = test system: TK-10 renal
[21] = test system: RXF 393 renal
[22] = test system: SF-295 CNS
[23] = test system: SK-MEL-28 melanoma
[24] = test system: SNB-19 CNS
[25] = test system: DU-145 prostate
[26] = test system: NCI-H23 lung
[27] = test system: A549 NSCLC
[28] = test system: SK-MEL-2 melanoma
[29] = test system: BT-549 breast
[30] = test system: HCT-116 colon
[31] = test system: LOX IMVI melanoma
[32] = test system: OVCAR-3 ovarian
[33] = test system: SF-268 CNS
[34] = test system: UO-31 renal
[35] = test system: SN12C renal
[36] = test system: ACHN renal
[37] = test system: HOP-92 NSCLC
[38] = test system: NCI/ADR-RES ovarian
[39] = test system: SNB-75 CNS
[40] = test system: HL-60(TB) leukemia
[41] = test system: KM12 colon
[42] = test system: UACC-62 melanoma
[43] = test system: OVCAR-4 ovarian
[44] = test system: OVCAR-8 ovarian
[45] = test system: SF-539 CNS
[46] = test system: T-47D breast
[47] = test system: OVCAR-5 ovarian
[48] = test system: IGROV1 ovarian
[49] = test system: HCC-2998 colon
[50] = test system: M14 melanoma
[51] = test system: K-562 leukemia
[52] = test system: HS 578T breast
[53] = test system: SR leukemia
[54] = test system: 786-0 renal
[55] = test system: SW-620 colon
[56] = test system: HT29 colon
[57] = test system: SK-MEL-5 melanoma

Compound COc1ccc(NC(=O)O[C@H]2[C@H](O[C@H]3[C@@H](O)COC(O[C@H]4C[C@H]5[C@@H]6CC=C7C[C@@H](O)CC[C@]7(C)[C@H]6CC[C@]5(C)[C@H]4[C@H](C)C(=O)CCC(C)C)[C@@H]3OC(C)=O)OC[C@@H](O)[C@@H]2O)cc1 (some centres undefined) has a GI50 [1] of less than 10 nM, a TGI [1] of 62.8 nM and a GI50 [2] of less than 10 nM. For the same compound, the TGI [2] was 12200 nM, the GI50 [3] was less than 10 nM and the TGI [3] was 879 nM. For the same compound, the GI50 [4] was less than 10 nM, the TGI [4] was 340 nM and the GI50 [5] was less than 10 nM. The TGI [5] was 1470 nM, the GI50 [6] was 349 nM and the TGI [6] was 11200 nM. For the same compound, the GI50 [7] was 72.5 nM, the TGI [7] was 17300 nM and the GI50 [8] was less than 10 nM. The TGI [8] was 2250 nM, the GI50 [9] was less than 10 nM and the TGI [9] was 1020 nM. For the same compound, the GI50 [10] was less than 10 nM, the TGI [10] was 75.9 nM and the GI50 [11] was 73.5 nM. It also gave a TGI [11] of 1230 nM, a GI50 [12] of less than 10 nM and a TGI [12] of 4870 nM. For the same compound, the GI50 [13] was 15 nM, the TGI [13] was 3710 nM and the GI50 [14] was less than 10 nM. It also gave a TGI [14] of 1760 nM, a GI50 [15] of 10.5 nM and a TGI [15] of 36.3 nM. It also gave a GI50 [16] of less than 10 nM, a TGI [16] of less than 10 nM and a GI50 [17] of less than 10 nM. For the same compound, the TGI [17] was 1010 nM, the GI50 [18] was 11.5 nM and the TGI [18] was 3250 nM. It also gave a GI50 [19] of 318 nM, a TGI [19] of 19200 nM and a GI50 [20] of 96.6 nM. For the same compound, the TGI [20] was 23800 nM, the GI50 [21] was less than 10 nM and the TGI [21] was less than 10 nM. For the same compound, the GI50 [22] was less than 10 nM, the TGI [22] was less than 10 nM and the GI50 [23] was less than 10 nM. The TGI [23] was 12.7 nM, the GI50 [24] was 18.9 nM and the TGI [24] was 3360 nM. For the same compound, the GI50 [25] was 367 nM, the TGI [25] was 34700 nM and the GI50 [26] was 28.4 nM. For the same compound, the TGI [26] was 5030 nM, the GI50 [27] was less than 10 nM and the TGI [27] was 20500 nM. For the same compound, the GI50 [28] was less than 10 nM, the TGI [28] was 192 nM and the GI50 [29] was less than 10 nM. The TGI [29] was 11300 nM, the GI50 [30] was less than 10 nM and the TGI [30] was 14400 nM. It also gave a GI50 [31] of less than 10 nM, a TGI [31] of less than 10 nM and a GI50 [32] of 1110 nM. The TGI [32] was 31500 nM, the GI50 [33] was less than 10 nM and the TGI [33] was 2760 nM. It also gave a GI50 [34] of 24 nM, a TGI [34] of 97.8 nM and a GI50 [35] of 11400 nM. It also gave a TGI [35] greater than 100000 nM, a GI50 [36] of 118 nM and a TGI [36] greater than 100000 nM. It also gave a GI50 [37] of less than 10 nM, a TGI [37] of 2030 nM and a GI50 [38] of 3780 nM. The TGI [38] was greater than 100000 nM, the GI50 [39] was less than 10 nM and the TGI [39] was 6880 nM. For the same compound, the GI50 [40] was 13.9 nM, the TGI [40] was 28200 nM and the GI50 [41] was 32.3 nM. The TGI [41] was 16400 nM, the GI50 [42] was less than 10 nM and the TGI [42] was less than 10 nM. For the same compound, the GI50 [43] was 145 nM, the TGI [43] was greater than 100000 nM and the GI50 [44] was 7750 nM. It also gave a TGI [44] greater than 100000 nM, a GI50 [45] of less than 10 nM and a TGI [45] of 12.4 nM. It also gave a GI50 [46] of less than 10 nM, a TGI [46] of 14700 nM and a GI50 [47] of 169 nM. It also gave a TGI [47] of 26200 nM, a GI50 [48] of 33.1 nM and a TGI [48] greater than 100000 nM. For the same compound, the GI50 [49] was 566 nM, the TGI [49] was 32700 nM and the GI50 [50] was less than 10 nM. It also gave a TGI [50] of 20.3 nM, a GI50 [51] of less than 10 nM and a TGI [51] of 19600 nM. It also gave a GI50 [52] of less than 10 nM, a TGI [52] of 11.6 nM and a GI50 [53] of less than 10 nM. The TGI [53] was 29900 nM, the GI50 [54] was less than 10 nM and the TGI [54] was 11300 nM. It also gave a GI50 [55] of less than 10 nM, a TGI [55] of 66.4 nM and a GI50 [56] of 24.2 nM. The TGI [56] was 15500 nM, the GI50 [57] was less than 10 nM and the TGI [57] was 11.4 nM.
